According to US11306122B2, “Compositions and methods of inhibiting the binding of plasma IgG autoantibodies to serotonin 2A receptor” (United States Government As Represented By The Department …, priority 2019, dated 2022):
“Also recorded” adds a separate entry of the source. Ends that are not written are not given here.

Tests used:
[1] = Blood glucose in ZDF rats; assay type: in vivo, Zucker diabetic fatty (ZDF) rat
[2] = Observation of side effects and sedation in ZDF rats; assay type: in vivo, Zucker diabetic fatty (ZDF) rat
Protocol: Normally these rats will feed nearly continuously when given the opportunity. This sedating effect was reproducible following a second IP injection of 1 mg of the SEQ ID NO: 2 in each of the 3 ZDR rats. […] Serotonin plays a major role in wakefulness and arousal in the nervous system. It is possible that the administration of SEQ ID NO: 2 blocks the action of the neurotransmitter serotonin at multiple sites in the periphery and in the central nervous system, inducing sleep via antagonism of serotonin's role in wakefulness/arousal, independent of the pronounced blood pressure-lowering effect.

[3] = tested on: mouse N2A neuroblastoma cells; experiment: Acute N2A neurite retraction induced by TBI patient 5-HT2A receptor autoantibodies; assay type: cell-based; settings: for effect on TBI autoantibody-induced acute neurite retraction: M100907 250-500 nM, Y27632 10 μM, other concentrations as in Table 17; for % of autoantibody Neurite Retraction from TBI patients: 60 nM IgG of representative TBI patient
Protocol: Acute neurite retraction. Mouse N2A neuroblastoma cells were maintained in Dulbecco's minimal essential medium with 10% fetal calf serum. […] Neurite retraction represents average neurite length-shortening after five minutes exposure to TBI (5-HT2A receptor) autoantibodies (60-100 nM) in the presence or absence of various G-protein coupled receptor (GPCR) or signaling pathway antagonists.
A 60 nanomolar concentration of the IgG autoantibodies (e.g., 5-HT2A receptor autoantibodies) from a representative TBI patient was incubated with N2A cells in the presence or absence of the indicated concentration of the selective GPCR antagonist.
A 60 nanomolar concentration of 5-HT2A receptor autoantibodies from TBI patients was incubated with N2A cells in the presence or absence of the indicated concentration of Gq11/PLC-gamma/IP3R antagonist or RhoA/Rho kinase pathway inhibitor.
Neurovascular 5-hydroxytryptamine (serotonin) 2A receptor (5-HT2AR) autoantibodies were previously reported to function as long-acting agonists in diabetic angiopathy and subsets of major depression, Parkinson's disease or dementia. The 5-HT2A receptor is highly expressed in specific brain regions underlying cognition, perception and mood regulation. Long-lasting 5-HT2A receptor activation by circulating autoantibodies might contribute to pathophysiology via central and peripheral mechanisms. Since the risk or incidence of Parkinson's disease, depression and dementia increase following traumatic brain injury (TBI), circulating neurotoxic autoantibodies (e.g., 5HT2AR) were tested, characterized and compared with autoantibodies from TBI patients vs. diabetic subsets with or without neurodegenerative disorders. Plasma IgG autoantibodies (e.g., 5-HT2AR autoantibodies) were obtained by protein-A affinity chromatography in ten male TBI patients mean age 64 years old.

[4] = tested on: N2A mouse neuroblastoma cells; experiment: Acute N2A neurite retraction induced by schizophrenia plasma autoantibodies; assay type: cell-based; settings: for % AutoAB-induced neurite retraction: 20 nM Pt 1 schizophrenia AutoAB
Protocol: (§1) Methods: Plasma from five older adults with chronic schizophrenia and eight age-matched patients having another neuropsychiatric, immune or metabolic disorder was subjected to Protein-A affinity chromatography to obtain IgG autoantibodies. Mean neurite retraction (5 minutes) or cell survival (24 hours) was determined in mouse N2A neuroblastoma cells incubated with autoantibodies in the presence or absence of specific antagonists of the Gq/11/PLC/IP3R signaling pathway, Gi-coupled, beta-arrestin2-directed pathways, or LY379268.
Acute neurite retraction assay. Percent of basal neurite length in N2A cells expressing one or more proximally-located dendrite-like process was determined after interval exposure to test substances (Zimering M B, J Endocrinol Diabetes. 2018; 5(2): 10).
A twenty nanomolar concentration of protein-A eluate fraction of plasma from Pt 1 with schizophrenia was incubated with N2A cells in the presence or absence of the indicated concentration of each Gq/11, GPCR antagonist. Results are the mean+/−SD of two experiments.
A forty nanomolar concentration of plasma autoantibodies (AutoAB) from Pt 1 or Pt, schizophrenia, was incubated in the presence or absence of the indicated concentration of RhoA/Rho kinase (ROCK) inhibitor, or individual antagonists of the Gq11/PLC/IP3R signaling pathway. […]

N2a neuroblastoma cells = experiment: N2a cell survival with ZDF rat plasma protein G eluate; assay type: cell-based, mouse; settings: 1 μM antagonist; 1 μg/mL (10 nM) eluate; 24 hours
Protocol: Plasma was applied to a Protein G affinity chromatography column (which binds most subclasses or rat IgG autoantibodies), washed extensively and eluted in low pH (2.7) buffer. The resulting eluate was incubated with N2a neuroblastoma cells at 37 degrees C. for 24 hours.

N2A cells = experiment: N2A cell loss (MTT) induced by TBI patient autoantibodies; assay type: cell-based, mouse
Protocol: Cell survival was determined with MTT assay.
Mouse neuroblastoma cell loss. N2A cell loss was quantified using an MTT (3-(4,5-dimethylthiazol-2-yl)-2,5-diphenyltetrazolium bromide) tetrazolium reduction assay after overnight incubation with autoantibodies from TBI patients (Zimering M B, Endocrinol Diabetes Metab J. 2019 August; 3(4) pii: 118. Epub 2019 Aug. 14).

[5] = tested on: N2A mouse neuroblastoma cells; experiment: N2A cell survival (MTT) promoted by schizophrenia/psychosis plasma autoantibodies; assay type: cell-based; settings: M100907 500 nM; LY379268 5 μM; pertussis toxin 100 ng/mL; LY294002 20 μM; 24 hours
Protocol: as §1
N2A cell survival. MTT assay was performed 24 hours after incubation with test substances (Zimering M B, J Endocrinol Diabetes. 2018; 5(2): 10).
Serotonin 2A receptor activation leads to f3-arrestin-2-mediated desensitization and receptor internalization. However, β-arrestin-2 can also couple with diverse signaling pathways leading to enhanced cell proliferation and/or survival promotion.

Compound	effect of repeated peptide injections on blood glucose concentration [1]	vomiting or other side effects during and for 15 days after administration ([2]; ZDF rats, alternate daily 2 mg/kg IP)	side effects eighteen days after injection ([2]; three ZDF rats, approximately 1 mg single intraperitoneal injection)	effect on TBI autoantibody-induced acute neurite retraction [3]	% of autoantibody Neurite Retraction from TBI patients ([3]; antagonist 400 nM)	% AutoAB-induced neurite retraction ([4]; antagonist 500 nM)	effect on accelerated neuroblastoma cell death induced by ZDF rat protein G eluate (N2a neuroblastoma cells)	effect alone on N2A cell survival (N2A cells; 250 nM-500 nM, without autoantibodies)	effect on accelerated N2A cell death/loss by TBI autoantibodies (N2A cells; M100907 250 nM (eight of eight patients), prazosin 850 nM (n=5), one-fiftieth dilution, 24 hours)	effect on autoantibody-induced N2A pro-survival/proliferation (words) [5]	prevention of mean neurite retraction in TBI patient 5-HT2AR autoantibodies ([3]; M100907 200-670 nM, n=10 TBI patients, retraction alone 52±10%)	% of autoantibody Neurite Retraction from TBI patients ([3]; antagonist 250 nM)	effect on LY379268-potentiated SCZ autoantibody-induced neurite retraction ([4]; M100907 500 nM)	effect on schizophrenia autoantibody-induced neurite retraction ([4]; M100907 two-hundred nanomolar, Y27632 ten micromolar, Y254890 one micromolar)	% AutoAB-induced neurite retraction ([4]; antagonist 200 nM)
SCLLADDN [Peptide 2]	no evidence that the peptide injections caused a significant increase in blood glucose concentration	did not experience vomiting or any other side effects	no untoward side effects were observed												
O=C(CCCN1CCC2(CC1)C(=O)NCN2c1ccccc1)c1ccc(F)cc1 [Spiperone]				substantially blocked	20%	17 ± 6%	significantly reduced; also recorded: significant protection								
COc1cccc([C@H](O)C2CCN(CCc3ccc(F)cc3)CC2)c1OC [Peptide M100907]				substantially prevented; also recorded: completely or nearly completed prevented			significantly reduced; also recorded: significant protection	no significant effect	substantially prevented; also recorded: nearly completely prevented	significantly blocked	89-91%	0%	significantly prevented	completely prevented	0 ± 0%
